Assay results as given in patent US4476122A, “Alkyloximes of 7-amino-thiazolyl-acetamido-cephalosporanic acids” (Roussel Uclaf, priority 1976, dated 1984).
Where two headings read alike, the source gives them in different places.

Key:
[1] = test system: Escherichia coli (T) O26 B6; assay: Experimental infection with Escherichia coli (T) O26 B6 in mice; type: in vivo
Procedure: The products of Example 6 and 10 were studied for their activity against an experimental infection of Escherichia coli in groups of 10 male mice weighing about 22 g. The mice received an intraperitoneal injection of 0.5 ml of a 24 hour old culture in a nutritive media of Escherichia coli (T) O26 B6 of the Pasteur Institute diluted 1/5.5 with distilled water. The test product was administered subcutaneously or orally 1 hour and 5 and 24 hours after the infection and the number of dead was determined during 8 days.

[2] = test system: Bacillus subtilis ATCC 6 633; assay: MIC, liquid medium dilution; type: cell-based
Procedure: (§1) The method used was a dilution of a liquid medium where a series of tubes received the same quantity of a sterile nutritive media and increasing doses of the test compounds were placed therein. Then each tube was seeded with a bacterial strain and was incubated for 24 or 48 hours at 37° C. in an oven. The increasing inhibition was determined by transillumination to determine the minimum inhibiting concentration (MIC in μg/ml) and the results are reported in the following Tables.

[3] = test system: Escherichia Coli Exp. TO26 B6; assay: MIC, liquid medium dilution; type: cell-based
Procedure: as §1

[4] = test system: Staphylococcus aureus UC 1 128 Pen-Resistant; assay: MIC, liquid medium dilution; type: cell-based
Procedure: as §1

[5] = test system: Staphylococcus aureus exp. n° 54 146; assay: MIC, liquid medium dilution; type: cell-based
Procedure: as §1

[6] = test system: Proteus vulgaris (indol+) A 232; assay: MIC, liquid medium dilution; type: cell-based
Procedure: as §1

[7] = test system: Salmonella typhimurium 420; assay: MIC, liquid medium dilution; type: cell-based; details: Salmonella enterica
Procedure: as §1

[8] = test system: Staphylococcus aureus ATCC 6 538 Pen-Sensitive; assay: MIC, liquid medium dilution; type: cell-based
Procedure: as §1

[9] = test system: Proteus mirabilis (indol-) A 235; assay: MIC, liquid medium dilution; type: cell-based
Procedure: as §1

[10] = test system: Streptococcus pyogenes A 561; assay: MIC, liquid medium dilution; type: cell-based
Procedure: as §1

[11] = test system: Escherichia Coli Sensitive Tetracycline ATCC 9 637; assay: MIC, liquid medium dilution; type: cell-based
Procedure: as §1

[12] = test system: Escherichia Coli Resistant Tetracycline ATCC 11 303; assay: MIC, liquid medium dilution; type: cell-based
Procedure: as §1

[13] = test system: Streptococcus faecalis 99 F 74; assay: MIC, liquid medium dilution; type: cell-based; details: Enterococcus faecalis
Procedure: as §1

[14] = test system: Klebsiella pneumoniae Exp. 52 145; assay: MIC, liquid medium dilution; type: cell-based; details: read-out: MIC
Procedure: as §1

[15] = test system: Streptococcus faecalis 5 432; assay: MIC, liquid medium dilution; type: cell-based
Procedure: as §1

Providencia Du 48 = assay: MIC, liquid medium dilution; type: cell-based
Procedure: as §1

[16] = test system: Klebsiella pneumoniae 2 536 Resistant Gentamicine; assay: MIC, liquid medium dilution; type: cell-based
Procedure: as §1

[17] = test system: Serratia Resistant Gentamicine 2 532; assay: MIC, liquid medium dilution; type: cell-based
Procedure: as §1

[18] = test system: Escherichia Coli Resistant Gentamicine, Tobramycine R 55 123 D; assay: MIC, liquid medium dilution; type: cell-based
Procedure: as §1

[19] = Enterococcus faecalis, 5432, 24 h
[20] = Enterococcus faecalis, 5432, 48 h

CO/N=C(\C(=O)NC1C(=O)N2C(C(=O)O)=C(C)CSC12)c1csc(N)n1 (stereo not shown) [Example 10, 7-[{2-(2-amino-4-thiazolyl)-2-methoxyimino}acetylamino]-3-methyl-ceph-3-eme-4-carboxylic acid]
0.2 µg/mL: MIC ([9]; 48 h) | MIC ([12]; ATCC11, 24 h) | MIC ([12]; ATCC11, 48 h)
0.1 µg/mL: MIC ([9]; 24 h, read-out: MIC) | MIC ([14]; EXP.52145, 24 h) | MIC ([14]; EXP.52145, 48 h)
8/10: Mice surviving on the 8th day ([1]; s. c., 3 × 0,5 mg)
20 µg/mL: MIC ([2]; ATCC6, 24 h) | MIC ([6]; 48 h) | MIC ([8]; ATCC6, 24 h) | MIC ([13]; 99F74, 24 h) | MIC [15, 19]
6: Mortality after 21 H 30 (number of dead of 10) ([1]; per os, 3 × 0,25 mg)
2: Mortality after 6 J (number of dead of 10) ([1]; per os, 3 × 0,5 mg) | Mortality after 21 H 30 (number of dead of 10) ([1]; per os, 3 × 0,5 mg) | Mortality after 70 H (number of dead of 10) ([1]; per os, 3 × 0,5 mg) | Mortality after 47 H (number of dead of 10) ([1]; per os, 3 × mg) | Mortality after 47 H (number of dead of 10) ([1]; s. c., 3 × 0,5 mg)
2 µg/mL: MIC (Providencia Du 48; DU48, 24 h) | MIC ([16]; 48 h)
40 µg/mL: MIC ([4]; UC1, 24 h) | MIC ([4]; UC1, 48 h) | MIC ([5]; 24 h) | MIC ([5]; 48 h) | MIC ([8]; ATCC6, 48 h)
6/10: Mice surviving on the 8th day ([1]; s. c., 3 × 0,1 mg)
0.4 µg/mL: MIC ([3]; 24 h)
> 40 µg/mL: MIC ([2]; ATCC6, 48 h) | MIC ([13]; 99F74, 48 h) | MIC [15, 20]
1: Mortality after 5 J (number of dead of 10) ([1]; per os, 3 × 0,5 mg) | Mortality after 47 H (number of dead of 10) ([1]; per os, 3 × 0,5 mg) | Mortality after 24 H 30 (number of dead of 10) ([1]; per os, 3 × 0,25 mg) | Mortality after 24 H (number of dead of 10) ([1]; per os, 3 × 0,25 mg) | Mortality after 21 H 30 (number of dead of 10) ([1]; per os, 3 × mg) | Mortality after 47 H (number of dead of 10) ([1]; s. c., 3 × 0,1 mg) | Mortality after 5 H 30 (number of dead of 10) ([1]; s. c., 3 × 0,25 mg) | Mortality after 28 H (number of dead of 10) ([1]; s. c., 3 × 0,25 mg) | Mortality after 54 H (number of dead of 10) ([1]; s. c., 3 × 0,25 mg)
3 µg/mL: MIC ([6]; 24 h)
3: Mortality after 21 H 30 (number of dead of 10) ([1]; s. c., 3 × 0,1 mg)
10 µg/mL: MIC ([17]; 48 h, read-out: MIC)
5 µg/mL: MIC (Providencia Du 48; DU48, 48 h) | MIC ([17]; 24 h)
7/10: Mice surviving on the 8th day ([1]; per os, 3 × mg) | Mice surviving on the 8th day ([1]; s. c., 3 × 0,25 mg)
2/10: Mice surviving on the 8th day ([1]; per os, 3 × 0,5 mg) | Mice surviving on the 8th day ([1]; per os, 3 × 0,25 mg)
0.6 µg/mL: MIC ([3]; 48 h) | MIC ([7]; 24 h, read-out: MIC) | MIC ([7]; 48 h) | MIC ([11]; ATCC9, 24 h, read-out: MIC) | MIC ([11]; ATCC9, 48 h) | MIC ([16]; 24 h, read-out: MIC) | MIC ([18]; 24 h, read-out: MIC) | MIC ([18]; 48 h)
0.05 µg/mL: MIC ([10]; A561, 24 h) | MIC ([10]; A561, 48 h, read-out: MIC)

CO/N=C(/C(=O)NC1C(=O)N2C(C(=O)O)=C(C)CS[C@H]12)c1csc(N)n1 (stereo partly shown) [Example 15, 7-[{2-(2-amino-4-thiazolyl)-2-methoxyiminoacetyl}amino]-3-methyl-ceph-3-eme-4-carboxylic acid]
20 µg/mL: MIC ([9]; 24 h, read-out: MIC)
2 µg/mL: MIC ([10]; A561, 24 h)
3 µg/mL: MIC ([10]; A561, 48 h)
40 µg/mL: MIC ([9]; 48 h, read-out: MIC)
100 µg/mL: MIC ([14]; EXP.52145, 24 h) | MIC ([14]; EXP.52145, 48 h)
> 100 µg/mL: MIC ([2]; ATCC6, 24 h) | MIC ([2]; ATCC6, 48 h) | MIC ([3]; 24 h) | MIC ([3]; 48 h) | MIC ([4]; UC1, 24 h) | MIC ([4]; UC1, 48 h) | MIC ([5]; 24 h) | MIC ([5]; 48 h) | MIC ([6]; 24 h) | MIC ([6]; 48 h) | MIC ([7]; 24 h) | MIC ([7]; 48 h) | MIC ([8]; ATCC6, 24 h) | MIC ([8]; ATCC6, 48 h) | MIC ([11]; ATCC9, 24 h) | MIC ([11]; ATCC9, 48 h) | MIC ([12]; ATCC11, 24 h) | MIC ([12]; ATCC11, 48 h) | MIC ([13]; 99F74, 24 h) | MIC ([13]; 99F74, 48 h) | MIC [15, 19] | MIC [15, 20] | MIC (Providencia Du 48; DU48, 24 h) | MIC (Providencia Du 48; DU48, 48 h) | MIC ([16]; 24 h) | MIC ([16]; 48 h) | MIC ([17]; 24 h) | MIC ([17]; 48 h) | MIC ([18]; 24 h) | MIC ([18]; 48 h)
